The results in this text go back to ChEMBL document CHEMBL5316330, “Design of an Ultralow Molecular Weight Heparin That Resists Heparanase Biodegradation” (J Med Chem, 2023).

In series [1] the test system is Mus musculus. Nature of the series: Anticoagulant activity in C57BL/6 mouse model of non-occlusive venous thrombosis assessed as average IVC weight at 12 ug/g, sc treated for 1 hr prior to electrolytic injury and 24 hrs after injury (reference value: 31.5 +/- 2.3 mg). In kind it is functional. The conditions noted are these: dose 12 µg/g, time 25 hrs.
The target of series [2] is T1, Coagulation factor X (Homo sapiens, UniProt P00742). Briefly: Potency index, ratio of Enoxaparin IC50 to test compound IC50 for factor Xa (unknown origin) by ACTICHROME heparin assay.
T1 sequence (P00742 41-179 limits assumed): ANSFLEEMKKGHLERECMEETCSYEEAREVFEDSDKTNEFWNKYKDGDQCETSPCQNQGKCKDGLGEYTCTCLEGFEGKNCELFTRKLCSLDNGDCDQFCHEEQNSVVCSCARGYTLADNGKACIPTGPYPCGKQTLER
T1 sequence (P00742 235-488 limits assumed): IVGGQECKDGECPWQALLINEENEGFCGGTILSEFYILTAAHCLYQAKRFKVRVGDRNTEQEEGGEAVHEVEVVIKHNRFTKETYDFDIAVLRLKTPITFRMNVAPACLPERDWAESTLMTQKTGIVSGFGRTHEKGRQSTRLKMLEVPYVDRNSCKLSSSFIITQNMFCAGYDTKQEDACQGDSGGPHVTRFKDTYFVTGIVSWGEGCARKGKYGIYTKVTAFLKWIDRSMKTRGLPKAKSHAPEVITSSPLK
A short description of series [3]: Stability of compound assessed as heparanase-mediated compound degradation by measuring retention time at 20 ug incubated overnight by LC-MS analysis (reference value: 10 mins). In kind it is physicochemical. To be noted: dose 20 µg.
Series [4] deals with T1, Coagulation factor X. Briefly: Inhibition of human factor Xa using S-2765 as substrate preincubated with antithrombin for 3 mins followed by incubation with factor Xa for 2 mins and further incubated with substrate for 5 mins by absorbance based assay.
Series [5] relates to Mus musculus. Briefly: Anticoagulant activity in C57BL/6 mouse model of non-occlusive venous thrombosis assessed as inhibition of factor Xa in plasma at 12 ug/g, sc treated for 1 hr prior to electrolytic injury and 24 hrs after injury. To be noted: dose 12 µg/g, time 25 hrs. In kind it is functional.
Series [6] deals with Mus musculus. Briefly: Anticoagulant activity in C57BL/6 mouse model of non-occlusive venous thrombosis assessed as average bleeding time at 12 ug/g, sc treated for 1 hr prior to electrolytic injury and 24 hrs after injury (reference value: 81 +/- 3 mg). It is filed as functional. To be noted: dose 12 µg/g, time 25 hrs.
Series [7] relates to Mus musculus. Nature of the series: Anticoagulant activity in C57BL/6 mouse model of non-occlusive venous thrombosis assessed as average IVC weight at 4 ug/g, sc treated for 4 hrs prior to electrolytic injury and 24 hrs after injury (reference value: 31.5 +/- 2.3 mg). The conditions noted are these: dose 4 µg/g, time 28 hrs. In kind it is functional.
Series [8] can be described thus: Stability of compound assessed as heparanase-mediated compound degradation by measuring retention time at 20 ug incubated overnight by LC-MS analysis (reference value: 17 mins). It is filed as physicochemical. To be noted: dose 20 µg.
The target in series [9] is T1, Coagulation factor X. Nature of the series: Inhibition of human factor Xa using S-2765 as substrate at 7 to 3600 ng/ml preincubated with antithrombin for 3 mins followed by incubation with factor Xa for 2 mins and further incubated with substrate for 5 mins by absorbance based assay. To be noted: dose 7-3600 ng/ml, time 10.0 min.

Active and inactive are the calls of the source. The rule behind the calls is not given here.

In the case of `O=C(O)[C@H]1O[C@@H](O[C@H]2[C@H](O)[C@@H](NS(=O)(=O)O)[C@@H](O[C@@H]3[C@H](O)[C@@H](OS(=O)(=O)O)[C@H](O[C@H]4[C@H](OS(=O)(=O)O)[C@@H](NS(=O)(=O)O)[C@@H](O[C@H]5[C@H](O)[C@@H](OS(=O)(=O)O)[C@H](O[C@@H]6[C@H](O)[C@@H](NS(=O)(=O)O)[C@@H](O[C@H]7[C@H](O)[C@@H](O)[C@H](Oc8ccc([N+](=O)[O-])cc8)O[C@@H]7C(=O)O)O[C@@H]6COS(=O)(=O)O)O[C@@H]5C(=O)O)O[C@@H]4COS(=O)(=O)O)O[C@H]3C(=O)O)O[C@@H]2COS(=O)(=O)O)[C@H](O)[C@@H](O)[C@@H]1O`, the Activity with Mus musculus [1] amounted to 18.8 mg; in the series with Mus musculus [5], 0.55 IU/ml; with Mus musculus [6], 143 mg; with Mus musculus [7], 13.9 mg. Besides, the fold change (FC) at Coagulation factor X [2] came out at 3. For the same molecule, the Retention_time in series [3] was found to be 15 min. For the same molecule, half-maximal inhibition on Coagulation factor X [4] (IC50) was put at 177 nM.
`O=C(O)[C@H]1O[C@@H](Oc2ccc([N+](=O)[O-])cc2)[C@H](O)[C@@H](O)[C@@H]1O[C@H]1O[C@H](COS(=O)(=O)O)[C@@H](O[C@@H]2O[C@@H](C(=O)O)[C@H](O[C@H]3O[C@H](COS(=O)(=O)O)[C@@H](O[C@@H]4O[C@H](C(=O)O)[C@@H](O[C@H]5O[C@H](COS(=O)(=O)O)[C@@H](O)[C@H](O)[C@H]5NS(=O)(=O)O)[C@H](O)[C@H]4O)[C@H](OS(=O)(=O)O)[C@H]3NS(=O)(=O)O)[C@H](O)[C@H]2OS(=O)(=O)O)[C@H](O)[C@H]1NS(=O)(=O)O`: the Retention_time in series [8] is on record as 22 min. Further, the inhibition result on Coagulation factor X [9] was “inactive”.

What is called IC50 is the concentration that inhibits the measured activity by half.
